# Biological target: T1, human GPBAR1 receptor (Homo sapiens, UniProt Q8TDU6)
# T1 construct: expressed in transfected cells
# T1 sequence (Q8TDU6 1-330): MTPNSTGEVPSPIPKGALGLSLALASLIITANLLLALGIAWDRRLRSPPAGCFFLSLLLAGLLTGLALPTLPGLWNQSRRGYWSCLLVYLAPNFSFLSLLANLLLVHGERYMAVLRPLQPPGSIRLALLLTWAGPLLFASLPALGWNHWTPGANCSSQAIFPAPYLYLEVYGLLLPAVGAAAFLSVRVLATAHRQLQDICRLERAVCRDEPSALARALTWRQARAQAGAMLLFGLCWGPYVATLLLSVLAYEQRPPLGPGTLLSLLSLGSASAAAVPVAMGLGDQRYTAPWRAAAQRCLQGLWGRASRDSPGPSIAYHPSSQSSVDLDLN
# Experiment: functional cAMP assay in CHO-dhfr(minus) cells expressing human GPBAR1 receptors
# Format: cell-based
# Conditions: cAMP increase (TR-FRET) in CHO-dhfr(minus) cells expressing human GPBAR1; compounds incubated 30 min at 30° C.
# Description: The final clone was verified by DNA sequence analysis. The plasmid was transfected into CHO cells deficient in dihydrofolate reductase activity (CHO-dhfr-) using Lipofectamine plus (Invitrogen). Clones were isolated in limited dilution conditions and identified by activities in the cAMP assay using lithocholic acid as agonist.
# The growth medium was exchanged with Krebs Ringer Bicarbonate buffer with 1 mM IBMX and incubated at 30° C. for 30 mM. Compounds were added to a final assay volume of 100 μl and incubated for 30 min at 30° C. […] The time-resolved energy transfer is measured by a TRF reader (Evotec Technologies GmbH, Hamburg Germany), equipped with a ND:YAG laser as excitation source. The plate is measured twice with the excitation at 355 nm and at the emission with a delay of 100 ns and a gate of 100 ns, total exposure time 10s at 730 (bandwith 30 nm) or 645 nm (bandwith 75 nm), respectively.
# EC50 values were determined using Activity Base analysis (ID Business Solution, Limited). […] Specificity for GPBAR1 was tested in non-transfected CHO cells in the same assay as above.
row,EC50 [nM],SMILES
1,96,"CN(CC(=O)O)C(=O)CCc1cc(Cl)c(Oc2ncccc2C(=O)N2CCN(C3CC3)c3ccccc32)cc1Cl [Example 178, [(b 3-{2,5-Dichloro-4-[3-(4-cyclopropyl-3,4-dihydro-2H-quinoxaline-1-carbonyl)-pyridin-2-yloxy]-phenyl}-propionyl)-methyl-amino]-acetic acid]"
2,36,"O=C(c1cccnc1Oc1cc(Cl)c(C#CCO)cc1Cl)N1CCN(C2CC2)c2ccccc21 [Example 164, (4-Cyclopropyl-3,4-dihydro-2H-quinoxalin-1-yl)-{2-[2,5-dichloro-4-(3-hydroxy-prop-1-ynyl)-phenoxy]-pyridin-3-yl}-methanone]"
3,91,"O=C(O)CCNC(=O)CCCc1cc(Cl)c(Oc2ncccc2C(=O)N2CCN(C3CC3)c3ccccc32)cc1Cl [Example 181, 3-(4-{2,5-Dichloro-4-[3-(4-cyclopropyl-3,4-dihydro-2H-quinoxaline-1-carbonyl)-pyridin-2-yloxy]-phenyl}-butyrylamino)-propionic acid]"
4,321,"CN(C(=O)c1cccnc1Oc1cc(Cl)ccc1Cl)c1ccccc1C1CC1 [Example 131, N-(2-Cyclopropyl-phenyl)-2-(2,5-dichloro-phenoxy)-N-methyl-nicotinamide]"
5,246,"O=C(c1cccnc1Oc1cc(Cl)ccc1Cl)N1CC2CCCN2c2ccccc21 (centres unmarked) [Example 136, [2-(2,5-Dichloro-phenoxy)-pyridin-3-yl]-(2,3,3a,4-tetrahydro-1H-pyrrolo[1,2-a]quinoxalin-5-yl)-methanone]"
6,53,"CCOC(=O)CN1CCN(C(=O)c2cc(F)cnc2Oc2cc(Cl)ccc2Cl)c2ccccc21 [Example 154, {4-[2-(2,5-Dichloro-phenoxy)-5-fluoro-pyridine-3-carbonyl]-3,4-dihydro-2H-quinoxalin-1-yl}-acetic acid ethyl ester]"
7,71,"O=C(O)C1CCCN1C(=O)CCc1cc(Cl)c(Oc2ncccc2C(=O)N2CCN(C3CC3)c3ccccc32)cc1Cl (centres unmarked) [Example 180, 1-(3-{2,5-Dichloro-4-[3-(4-cyclopropyl-3,4-dihydro-2H-quinoxaline-1-carbonyl)-pyridin-2-yloxy]-phenyl}-propionyl)-pyrrolidine-2-carboxylic acid]"
8,155,O=C(c1cc(F)cnc1Oc1cc(Cl)ccc1Cl)N1Cc2cccn2-c2ccccc21 [Example 149]
9,132,"O=C(O)/C=C/c1cc(Cl)c(Oc2ncccc2C(=O)N2CCN(C3CC3)c3ccccc32)cc1Cl [Example 172, 3-{2,5-Dichloro-4-[3-(4-cyclopropyl-3,4-dihydro-2H-quinoxaline-1-carbonyl)-pyridin-2-yloxy]-phenyl}-acrylic acid]"
10,259,"CC(=O)OCCN1CCN(C(=O)c2cccnc2Oc2cc(Cl)ccc2Cl)c2ccccc21 [Example 140, Acetic acid 2-{4-[2-(2,5-dichloro-phenoxy)-pyridine-3-carbonyl]-3,4-dihydro-2H-quinoxalin-1-yl}-ethyl ester]"
11,286,"O=C(c1cccnc1Oc1cc(C(F)(F)F)ccc1F)N1CCCc2ccccc21 [Example 144, (3,4-Dihydro-2H-quinolin-1-yl)-[2-(2-fluoro-5-trifluoromethyl-phenoxy)-pyridin-3-yl]-methanone]"

# Continued, molecule first:
row,SMILES,EC50 [nM]
1,"O=C(c1cccnc1Oc1cc(Cl)ccc1Cl)N1CCN(C2CCC2)c2ccccc21 [Example 126, (4-Cyclobutyl-3,4-dihydro-2H-quinoxalin-1-yl)-[2-(2,5-dichloro-phenoxy)-pyridin-3-yl]-methanone]",10
2,"O=C(c1ccncc1Oc1ccc(F)c(Cl)c1)N1CCCc2cc(F)ccc21 [Example 104, [3-(3-Chloro-4-fluoro-phenoxy)-pyridin-4-yl]-(6-fluoro-3,4-dihydro-2H-quinolin-1-yl)-methanone]",173
3,"O=C(c1cccnc1Oc1cccc(OC(F)(F)F)c1)N1CCCc2ccccc21 [Example 16, (3,4-Dihydro-2H-quinolin-1-yl)-[2-(3-trifluoromethoxy-phenoxy)-pyridin-3-yl]-methanone]",1920
4,"O=C(c1ccccc1Oc1cc(Cl)ccc1Cl)N1CCCc2ccccc21 [Example 110, [2-(2,5-Dichloro-phenoxy)-phenyl]-(3,4-dihydro-2H-quinolin-1-yl)-methanone]",29
5,"CC(C)c1cccc(Oc2ncccc2C(=O)N2CCCc3ccccc32)c1 [Example 19, (3,4-Dihydro-2H-quinolin-1-yl)-[2-(3-isopropyl-phenoxy)-pyridin-3-yl]-methanone]",625
6,"O=C(c1ccncc1Oc1ccc(F)c(Cl)c1)N1CCCc2cc(F)cc(F)c21 [Example 105, [3-(3-Chloro-4-fluoro-phenoxy)-pyridin-4-yl]-(6,8-difluoro-3,4-dihydro-2H-quinolin-1-yl)-methanone]",138
7,"O=C(c1cccnc1Oc1ccc(F)c(Cl)c1)N1CCCc2ccccc21 [Example 10, [2-(3-Chloro-4-fluoro-phenoxy)-pyridin-3-yl]-(3,4-dihydro-2H-quinolin-1-yl)-methanone]",53
8,"COc1ccccc1N(C)C(=O)c1cccnc1Oc1cc(Cl)ccc1Cl [Example 42, 2-(2,5-Dichloro-phenoxy)-N-(2-methoxy-phenyl)-N-methyl-nicotinamide]",20
9,"O=C(c1cccnc1Oc1cc(Cl)ccc1Cl)N1CCSc2ccccc21 [Example 39, [2-(2,5-Dichloro-phenoxy)-pyridin-3-yl]-(2,3-dihydro-benzo[1,4]thiazin-4-yl)-methanone]",29
10,"O=C(c1cccnc1Oc1cc(Cl)ccc1Cl)N1CCN(C2CC2)c2ccccc21 [Example 125, (4-Cyclopropyl-3,4-dihydro-2H-quinoxalin-1-yl)-[2-(2,5-dichloro-phenoxy)-pyridin-3-yl]-methanone]",4
11,"O=C(c1cccnc1Oc1cc(Cl)ccc1Cl)N1CCOc2ccccc21 [Example 36, [2-(2,5-Dichloro-phenoxy)-pyridin-3-yl]-(2,3-dihydro-benzo[1,4]oxazin-4-yl)-methanone]",135
12,"Cc1ccnc(Cl)c1N(C)C(=O)c1cccnc1Oc1cc(Cl)ccc1Cl [Example 69, N-(2-Chloro-4-methyl-pyridin-3-yl)-2-(2,5-dichloro-phenoxy)-N-methyl-nicotinamide]",566
13,"O=C(c1ccncc1Oc1ccc(F)c(Cl)c1)N1CCCc2ccc(F)cc21 [Example 103, [3-(3-Chloro-4-fluoro-phenoxy)-pyridin-4-yl]-(7-fluoro-3,4-dihydro-2H-quinolin-1-yl)-methanone]",299
14,"CN(C(=O)c1cccnc1Oc1cc(Cl)ccc1Cl)c1ccccc1Cl [Example 40, N-(2-Chloro-phenyl)-2-(2,5-dichloro-phenoxy)-N-methyl-nicotinamide]",103
15,"Cc1cccc(Oc2ncccc2C(=O)N2CCCc3ccccc32)c1 [Example 8, (3,4-Dihydro-2H-quinolin-1-yl)-(2-m-tolyloxy-pyridin-3-yl)-methanone]",644
16,"COc1ccccc1N(C)C(=O)c1ccncc1Oc1ccc(F)c(Cl)c1 [Example 108, 3-(3-Chloro-4-fluoro-phenoxy)-N-(2-methoxy-phenyl)-N-methyl-isonicotinamide]",122
17,"Cc1ccccc1N(C)C(=O)c1ccncc1Oc1ccc(Cl)cc1Cl [Example 99, 3-(2,4-Dichloro-phenoxy)-N-methyl-N-o-tolyl-isonicotinamide]",388
18,"O=C(c1cc(Cl)cnc1Oc1cc(F)ccc1F)N1CCCc2ccccc21 [Example 28, [5-Chloro-2-(2,5-difluoro-phenoxy)-pyridin-3-yl]-(3,4-dihydro-2H-quinolin-1-yl)-methanone]",1980
19,"CN(C(=O)c1cccnc1Oc1cc(Cl)ccc1Cl)c1ccccc1 [Example 35, 2-(2,5-Dichloro-phenoxy)-N-methyl-N-phenyl-nicotinamide]",283
20,"CN(C(=O)c1cccnc1Oc1cc(Cl)ccc1Cl)c1ccccc1-n1cccc1 [Example 65, 2-(2,5-Dichloro-phenoxy)-N-methyl-N-(2-pyrrol-1-yl-phenyl)-nicotinamide]",357
21,"O=C(c1cccnc1Oc1ccccc1Cl)N1CCCc2ccccc21 [Example 2, [2-(2-Chloro-phenoxy)-pyridin-3-yl]-(3,4-dihydro-2H-quinolin-1-yl)-methanone]",989
22,"C=C1CCN(C(=O)c2cccnc2Oc2cc(Cl)ccc2Cl)c2ccccc21 [Example 129, [2-(2,5-Dichloro-phenoxy)-pyridin-3-yl]-(4-methylene-3,4-dihydro-2H-quinolin-1-yl)-methanone]",24
23,"O=C(c1cccnc1Oc1cc(Cl)cc(Cl)c1)N1CCCc2ccccc21 [Example 17, [2-(3,5-Dichloro-phenoxy)-pyridin-3-yl]-(3,4-dihydro-2H-quinolin-1-yl)-methanone]",176
24,"O=C(c1cccnc1Oc1cc(F)cc(Cl)c1)N1CCCc2ccccc21 [Example 13, [2-(3-Chloro-5-fluoro-phenoxy)-pyridin-3-yl]-(3,4-dihydro-2H-quinolin-1-yl)-methanone]",149
